According to article PMC11487390, “Design and Synthesis of 1,3-Diarylpyrazoles and Investigation of Their Cytotoxicity and Antiparasitic Profile” (International Journal of Molecular Sciences, 2024):
Structures can show the parent of a compound that is named as a salt. Where two headings read alike, the source gives them in different places.

How the values were obtained:
[1] = Cytotoxicity assay, MRC-5SV2 cells, resazurin, 3 days; assay type: cell-based; conditions: human, MRC-5SV2 human lung fibroblast cells, MRC-5 cells, highest concentration 64 µM
Description: The series of final products (13–69) was investigated in vitro on the human fetal lung fibroblast cell line MRC-5 (Table 1) to assess cytotoxicity toward normal (i.e., non-malignant) human cells. […] As explained earlier, these are important pathogens for humans or cattle (T. b. brucei) and a persistent need for new therapeutics exists for these parasites. As a part of the antiparasitic tests, cytotoxicity against primary mouse macrophages (PMMs) was also evaluated. These murine cells serve as host cells for parasites in the L. infantum assay. Therefore, the murine macrophage assay not only offers additional cytotoxicological insight but is also essential to interpreting the readout of the L. infantum assay.
(§1) The MRC-5SV2 human lung fibroblast cell line was cultured in MEM + Earle’s salts-medium, supplemented with 2 mM L-glutamine, 16.5 mM NaHCO3, and 5% inactivated fetal calf serum. For evaluating the antileishmanial activity, the L. infantum MHOM/MA(BE)/67 strain was used. This strain was maintained in a Golden hamster (Mesocricetus auratus). Amastigotes were collected from the spleen of an infected donor hamster using differential centrifugation. Primary peritoneal mouse macrophages were used as host cells and were collected 2 days after peritoneal stimulation with a 2% potato starch suspension. For the intracellular T. cruzi assays, the Tulahuen CL2 strain was used that expresses β-galactosidase. The strain was maintained in MRC-5SV2 cells in MEM medium. The T. b. brucei Squib 427 strain or T. b. rhodesiense STIB-900 strain was used for screening against the extracellular African trypanosomes. The strains were maintained in Hirumi’s Modified Iscove’s medium-9 (HMI-9), supplemented with 10% inactivated fetal calf serum. All cultures and assays were performed at 37 °C with 5% CO2.
(§2) Compound stock solutions were prepared in 100% DMSO at 20 mM. The compounds were serially pre-diluted by robotic plate production (4-fold) in DMSO followed by a further (intermediate) dilution in demineralized water to assure a final in-test DMSO concentration of <1%. Identical test plates containing 10 µL of the different concentrations of each compound were produced for the different assays. For the cytotoxicity assays, 5 concentrations per compound were tested (64–16–4–1–0.25 µM). For the parasitic assays, 10 concentrations per compound were tested, ranging from 64 µM to 0.2 nM.
Assays were performed in sterile 96-well microtiter plates, each well containing 10 µL of the watery compound dilutions together with 190 µL of MRC-5SV2 inoculum (1.5 × 10^5 cells/mL). Cell growth was compared to untreated control wells (100% cell growth) and medium-control wells (0% cell growth). After 3 days incubation, MRC-5 viability was assessed fluorimetrically after addition of 50 μL resazurin per well (final concentration of 10 µg mL^−1). After 4 h at 37 °C, fluorescence was measured (λex 550 nm, λem 590 nm). The results were expressed as % reduction in cell growth/viability compared to positive (100% growth–0% inhibition) and negative (0% growth–100% inhibition) control wells from which EC50 values (50% effective concentrations) were derived using an excel macro that calculates the interpolation of the concentrations corresponding to the flanking points, just above and just below 50% inhibition.

[2] = test system: Trypanosoma cruzi Tulahuen CL2 strain; assay: Intracellular T. cruzi assay in MRC-5 cells (β-galactosidase/CPRG, 7 days); assay type: cell-based; conditions: Trypanosoma cruzi, TULAHUEN, MRC5, 168 h, intracellular in MRC-5 cells
Description: as §1, §2
MRC-5 cells were infected in 96-well plates using a harvested T. cruzi inoculum (4 × 10^3 MRC-5 cells/well + 4 × 10^4 parasites/well) and exposed to 10 µL of the compound dilutions (200 µL/well total volume). Parasite growth determined after 7 days of incubation and compared to untreated infected controls following the addition of the substrate CPRG (chlorophenolred ß-D-galactopyranoside): 50 µL/well of a stock solution containing 15.2 mg CPRG + 250 µL Nonidet in 100 mL PBS. The absorbance was measured spectrophotometrically at 540 nm after 4 h incubation at 37 °C and EC50 values were calculated.

[3] = test system: L. infantum MHOM/MA(BE)/67 strain; assay: L. infantum intracellular amastigote assay in PMM (Giemsa, 5 days); assay type: cell-based, Leishmania infantum
Description: as §1, §2
Primary peritoneal mouse macrophages (PMMs) were prepared in RPMI-1640 medium, supplemented with 2 mM L-glutamine, 16.5 mM NaHCO3, and 5% inactivated fetal calf serum. The macrophages are infected after 48 h with spleen-derived L. infantum amastigotes (3 × 10^4 PMM + 4.5 × 10^5 parasites/well). The compounds were added after 2 h of infection. After 5 days incubation, parasite burdens (mean number of amastigotes/macrophage) were assessed microscopically after staining with a 10% Giemsa solution and EC50 values were calculated.

[4] = test system: T. b. brucei Squib 427 strain; assay: T. b. brucei growth assay (resazurin, 3 days); assay type: cell-based, Trypanosoma brucei brucei; conditions: Trypanosoma brucei, 72 h
Description: as §1, §2
(§3) Parasite suspensions (1.5 × 10^4 T. b. brucei/well or 4 × 10^3 T. b. rhodesiense/well) in HMI-9 medium were exposed in a total volume of 200 µL to 10 µL of the compound dilutions Parasite growth was assessed fluorimetrically after 3 days of incubation by the addition of 50 µL resazurin per well. After 6 h (T. b. rhodesiense) or 24 h (T. b. brucei) at 37 °C, fluorescence was measured (λex 550 nm, λem 590 nm), from which viability and EC50 values could be determined.

[5] = test system: T. b. rhodesiense STIB-900 strain; assay: T. b. rhodesiense growth assay (resazurin, 3 days); assay type: cell-based, Trypanosoma brucei rhodesiense; conditions: Trypanosoma brucei, RHODESIENSE, 72 h
Description: as §1, §2, §3

[6] = Leishmania infantum, 120 h, amastigotes in PMM, 5 days, read-out: L. inf. (EC50)
[7] = 3 days, read-out: T. b. bruc. (EC50)
[8] = 3 days, read-out: T. b. rhod. (EC50)
[9] = Leishmania infantum, 120 h, read-out: L. inf. (EC50, µM), amastigotes in PMM, 5 days
[10] = read-out: T. b. bruc. (EC50, µM), 3 days
[11] = read-out: T. b. rhod. (EC50, µM), 3 days

SMILES	EC50 at 3 days [1] [µM]	EC50 [2] [µM]	EC50 [3, 6] [µM]	EC50 [4, 7] [µM]	EC50 [5, 8] [µM]	EC50 [3, 9] [µM]	EC50 [4, 10] [µM]	EC50 [5, 11] [µM]	EC50 ([3]; read-out: L. inf. (EC50), amastigotes in PMM, 5 days) [µM]
COc1ccc(-c2nn(-c3ccccc3)cc2CN2CCCC2)cc1 [Compound 65, 3-(4-methoxyphenyl)-1-phenyl-4-(pyrrolidin-1-ylmethyl)-1H-pyrazole oxalate]	32	28.9	33.2	6.87	6.43				
COc1ccc(-c2nn(-c3ccccc3)cc2COCc2ccc(F)cc2)cc1 [Compound 68, 4-(((4-fluorobenzyl)oxy)methyl)-3-(4-methoxyphenyl)-1-phenyl-1H-pyrazole]	> 64	5.33	36.8	29.6	11.4				
FC(F)c1cn(-c2ccccc2)nc1-c1ccc2c(c1)OCCO2 [Compound 53, 4-(difluoromethyl)-3-(2,3-dihydrobenzo[b][1,4]dioxin-6-yl)-1-phenyl-1H-pyrazole]	21.8	6.44	32.5	30.3	19				
c1ccc(Cn2cc(COCc3cn(-c4ccccc4)nc3-c3ccc4c(c3)OCCO4)nn2)cc1 [Compound 48, 1-benzyl-4-(((3-(2,3-dihydrobenzo[b][1,4]dioxin-6-yl)-1-phenyl-1H-pyrazol-4-yl)methoxy)methyl)-1H-1,2,3-triazole]	> 64	> 64	32.5	> 64	1.78				
c1ccc(-n2cc(CNCCc3ccccn3)c(-c3ccc4c(c3)OCO4)n2)cc1 [Compound 59, N-((3-(benzo[d] [1,3]dioxol-5-yl)-1-phenyl-1H-pyrazol-4-yl)methyl)-2-(pyridin-2-yl)ethan-1-amine hydrochloride]	26.6	6.71				8.06	1.64	1.61	
c1ccc(Cc2cn(-c3ccccc3)nc2-c2ccc3c(c2)OCCO3)cc1 [Compound 49, 4-benzyl-3-(2,3-dihydrobenzo[b][1,4]dioxin-6-yl)-1-phenyl-1H-pyrazole]	59.5	7.35	38.1	29.3	16.5				
FCc1cn(-c2ccccc2)nc1-c1ccc2c(c1)OCCO2 [Compound 52, 3-(2,3-dihydrobenzo[b][1,4]dioxin-6-yl)-4-(fluoromethyl)-1-phenyl-1H-pyrazole]	22.6	23.9	> 64	> 64	27.1				
O=C(NCc1cn(-c2ccccc2)nc1-c1ccc2c(c1)OCCO2)Nc1ccc(F)cc1 [Compound 54, 1-((3-(2,3-dihydrobenzo[b][1,4]dioxin-6-yl)-1-phenyl-1H-pyrazol-4-yl)methyl)-3-(4-fluorophenyl)urea]	> 64	> 64	> 64	> 64	> 64				
Fc1ccc(COCc2cn(-c3ccccc3)nc2-c2ccc3c(c2)OCCO3)cc1 [Compound 45, 3-(2,3-dihydrobenzo[b][1,4]dioxin-6-yl)-4-(((4-fluorobenzyl)oxy)methyl)-1-phenyl-1H-pyrazole]	> 64	5.51	22.6	27.2	7.16				
Fc1ccc(-n2cc(COCc3cn(-c4ccccc4)nc3-c3ccc4c(c3)OCCO4)nn2)cc1 [Compound 47, 4-(((3-(2,3-dihydrobenzo[b][1,4]dioxin-6-yl)-1-phenyl-1H-pyrazol-4-yl)methoxy)methyl)-1-(4-fluorophenyl)-1H-1,2,3-triazole]	51.5	64	> 64	55.9	5.56				
CNC(=O)c1cc(Oc2ccc(NCc3cn(-c4ccccc4)nc3-c3ccc4c(c3)OCO4)cc2)ccn1 [Compound 60, 4-(4-(((3-(benzo[d] [1,3]dioxol-5-yl)-1-phenyl-1H-pyrazol-4-yl)methyl)amino)phenoxy)-N-methylpicolinamide]	60.7	> 64	32.5	> 64	5.18				
O=C(NCCN1CCCC1)c1cn(-c2ccccc2)nc1-c1ccc2c(c1)OCCO2 [Compound 42, 3-(2,3-dihydrobenzo[b][1,4]dioxin-6-yl)-1-phenyl-N-(2-(pyrrolidin-1-yl)ethyl)-1H-pyrazole-4-carboxamide oxalate]	28	21.7	27.3	7.15	6.43				
O=C(NCCc1ccccc1)c1cn(-c2ccccc2)nc1-c1ccc2c(c1)OCCO2 [Compound 34, 3-(2,3-dihydrobenzo[b][1,4]dioxin-6-yl)-N-phenethyl-1-phenyl-1H-pyrazole-4-carboxamide]	1.54	> 64	> 64	> 64	4.74				
c1ccc(-n2cc(COCc3cn(-c4ccccc4)nc3-c3ccc4c(c3)OCCO4)nn2)cc1 [Compound 46, 4-(((3-(2,3-dihydrobenzo[b][1,4]dioxin-6-yl)-1-phenyl-1H-pyrazol-4-yl)methoxy)methyl)-1-phenyl-1H-1,2,3-triazole]	> 64	> 64	32.5	9.04	2.18				
O=C(NCCN1CCOCC1)c1cn(-c2ccccc2)nc1-c1ccc2c(c1)OCCO2 [Compound 44, 3-(2,3-dihydrobenzo[b][1,4]dioxin-6-yl)-N-(2-morpholinoethyl)-1-phenyl-1H-pyrazole-4-carboxamide hydrochloride]	> 64	64				9.51	> 64	19	8.3
Clc1ccc(Cc2cn(-c3ccccc3)nc2-c2ccc3c(c2)OCCO3)cc1 [Compound 50, 4-(4-chlorobenzyl)-3-(2,3-dihydrobenzo[b][1,4]dioxin-6-yl)-1-phenyl-1H-pyrazole]	> 64	7.53	12.7	27.2	8.52				
